Laboratory results from ChEMBL document CHEMBL1201862, “PubChem BioAssay data set” (2004).
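In this assay, cells in 96-well plates receive the compound at five concentrations for 48 hours. Endpoints are linearly interpolated between the surrounding concentrations. GI50 marks 50% less growth.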 Calls of active or inactive are those of the source. Rule as the data show it: active = GI50 up to about 1.1 µM and inactive = higher.

Tests used:
Test in all cases: NCI-60 cell line screen, 48 h
[1] = system: MDA-MB-435
[2] = system: CCRF-CEM
[3] = system: MDA-N
[4] = system: UACC-257
[5] = system: MCF7
[6] = system: TK-10
[7] = system: K562
[8] = system: SNB-19
[9] = system: T47D
[10] = system: PC-3
[11] = system: RXF 393
[12] = system: OVCAR-8
[13] = system: MDA-MB-231
[14] = system: NCI-H23
[15] = system: HL-60
[16] = system: BT-549
[17] = system: KM-20L2
[18] = system: DLD-1
[19] = system: DU-145
[20] = system: XF498

| SMILES | GI50 [1] | GI50 [2] | GI50 [3] | GI50 [4] | GI50 [5] | GI50 [6] | GI50 [7] | GI50 [8] | GI50 [9] | GI50 [10] | GI50 [11] | GI50 [12] | GI50 [13] | GI50 [14] | GI50 [15] | GI50 [16] | GI50 [17] | GI50 [18] | GI50 [19] | GI50 [20] |
| --- | --- | --- | --- | --- | --- | --- | --- | --- | --- | --- | --- | --- | --- | --- | --- | --- | --- | --- | --- | --- |
| CC(=O)Nc1cc2c(cc1O)CC[C@@H]1[C@@H]2CC[C@]2(C)[C@@H](O)CC[C@@H]12 | 19.7 µM (inactive) | 23.9 µM (inactive) | 18.1 µM (inactive) | 43.4 µM (inactive) | 28.6 µM (inactive) | 49.7 µM (inactive) | 23.5 µM (inactive) | > 100 µM (inactive) | 30.3 µM (inactive) | 35.5 µM (inactive) | 43.3 µM (inactive) | 44.3 µM (inactive) | 55 µM (inactive) | 47.3 µM (inactive) | 29.6 µM (inactive) | 31.7 µM (inactive) | – | – | – | – |
| C=CCN1C(N)=C(C(N)=O)S/C1=C1/SC(=S)N(c2ccc(C)cc2)C1=O | – | > 100 µM (inactive) | – | > 100 µM (inactive) | – | > 100 µM (inactive) | > 100 µM (inactive) | > 100 µM (inactive) | – | – | – | > 100 µM (inactive) | – | 65.3 µM (inactive) | > 100 µM (inactive) | – | – | – | – | – |
| COc1cc(Nc2c3ccccc3nc3ccccc23)ccc1NS(C)(=O)=O | – | 28.8 µM (inactive) | – | 11.9 µM (inactive) | – | – | 34.4 µM (inactive) | 5.73 µM (inactive) | – | – | – | 4.5 µM (inactive) | – | > 10 µM (inactive) | 4.79 µM (inactive) | – | 4.46 µM (inactive) | 5.14 µM (inactive) | – | – |
| CCCSc1ccc2[nH]c(N3C(=O)/C(=C/c4cc(OC)c(OC)c(OC)c4)N=C3c3ccccc3)cc2c1 | 4.03 µM (inactive) | 7.94 µM (inactive) | 4.88 µM (inactive) | 13.8 µM (inactive) | 12.6 µM (inactive) | 17 µM (inactive) | 8.43 µM (inactive) | 0.681 µM (active) | 11 µM (inactive) | 16.1 µM (inactive) | 7.73 µM (inactive) | 12.6 µM (inactive) | > 37.5 µM (inactive) | 10.9 µM (inactive) | 5.66 µM (inactive) | 10.8 µM (inactive) | – | – | 10.1 µM (inactive) | – |
| N#CC(NC12CC3CC(CC(C3)C1)C2)c1ccccc1C(F)(F)F (centres undefined) | – | > 100 µM (inactive) | – | – | – | > 100 µM (inactive) | > 100 µM (inactive) | > 100 µM (inactive) | – | – | > 100 µM (inactive) | > 100 µM (inactive) | – | > 100 µM (inactive) | > 100 µM (inactive) | – | > 100 µM (inactive) | > 100 µM (inactive) | – | > 100 µM (inactive) |
| O=C1/C(=C\c2cccc(Oc3ccccc3)c2)SC(c2ccccc2)N1c1cccc([N+](=O)[O-])c1 (centres undefined) | 41.6 µM (inactive) | 21.7 µM (inactive) | 33.9 µM (inactive) | 97.3 µM (inactive) | 28.2 µM (inactive) | > 100 µM (inactive) | 36.6 µM (inactive) | 65.3 µM (inactive) | > 100 µM (inactive) | – | > 100 µM (inactive) | 35.5 µM (inactive) | > 100 µM (inactive) | > 100 µM (inactive) | – | > 100 µM (inactive) | – | – | > 100 µM (inactive) | – |
| COc1ccc(CNc2nc3cc(C(F)(F)F)ccc3nc2C)cc1OC | – | 31.9 µM (inactive) | – | 19 µM (inactive) | – | 24.3 µM (inactive) | 29.1 µM (inactive) | 41.6 µM (inactive) | – | – | – | 30.3 µM (inactive) | – | 35.7 µM (inactive) | 19.9 µM (inactive) | – | 44.1 µM (inactive) | 35.7 µM (inactive) | – | 35.3 µM (inactive) |
| Cc1c(C#N)c2nnn(C)c(=O)n2c1-c1ccccc1 | > 100 µM (inactive) | 64.1 µM (inactive) | > 100 µM (inactive) | 34.4 µM (inactive) | 71 µM (inactive) | > 100 µM (inactive) | – | > 100 µM (inactive) | – | 54.5 µM (inactive) | > 100 µM (inactive) | 48.2 µM (inactive) | > 100 µM (inactive) | 59.3 µM (inactive) | 30.8 µM (inactive) | 87.7 µM (inactive) | – | – | – | – |
| COc1cccc(N/C(C)=C2/CCOC2=O)c1 | > 10 µM (inactive) | > 10 µM (inactive) | > 10 µM (inactive) | – | > 10 µM (inactive) | > 10 µM (inactive) | – | > 10 µM (inactive) | > 10 µM (inactive) | > 10 µM (inactive) | > 10 µM (inactive) | > 10 µM (inactive) | 6.56 µM (inactive) | > 10 µM (inactive) | > 10 µM (inactive) | – | – | – | > 10 µM (inactive) | – |
| O=C(CCl)NC(Cc1ccc(F)cc1)C(=O)O (centres undefined) | – | > 100 µM (inactive) | – | > 100 µM (inactive) | > 100 µM (inactive) | – | > 100 µM (inactive) | > 100 µM (inactive) | – | – | – | > 100 µM (inactive) | – | > 100 µM (inactive) | > 100 µM (inactive) | – | > 100 µM (inactive) | > 88.9 µM (inactive) | – | > 100 µM (inactive) |
| Cc1sc(Cc2ccccc2)nc1-c1ccc(N)cc1 | 17.7 µM (inactive) | 15.9 µM (inactive) | – | 30 µM (inactive) | 19.5 µM (inactive) | 47.5 µM (inactive) | 20.7 µM (inactive) | 48.4 µM (inactive) | – | 29.9 µM (inactive) | – | 31 µM (inactive) | 26.1 µM (inactive) | 32.9 µM (inactive) | 26.2 µM (inactive) | 28.2 µM (inactive) | – | – | – | – |
| CC(C)(C)CI | – | 21.4 µM (inactive) | – | 21.2 µM (inactive) | – | > 100 µM (inactive) | 21.6 µM (inactive) | 23 µM (inactive) | – | – | 18.4 µM (inactive) | > 10 µM (inactive) | – | 55.6 µM (inactive) | 22.9 µM (inactive) | – | 32.2 µM (inactive) | 34.2 µM (inactive) | – | 18.5 µM (inactive) |
| O=C(O)c1ccc([Se][Se]c2ccc(C(=O)O)cc2)cc1 | – | – | – | – | – | 22.7 µM (inactive) | – | 34.1 µM (inactive) | – | – | 21.2 µM (inactive) | 28.6 µM (inactive) | – | 19.3 µM (inactive) | – | – | 33 µM (inactive) | 34 µM (inactive) | – | 31.7 µM (inactive) |
| NC1C=NNC1=O (centres undefined) | – | > 100 µM (inactive) | – | > 100 µM (inactive) | – | > 100 µM (inactive) | > 100 µM (inactive) | > 100 µM (inactive) | – | – | > 100 µM (inactive) | > 100 µM (inactive) | – | > 100 µM (inactive) | > 100 µM (inactive) | – | > 100 µM (inactive) | > 100 µM (inactive) | – | > 100 µM (inactive) |
| COc1cc(Nc2nc3cc(C(F)(F)F)ccc3n3cccc23)cc(OC)c1OC | 9.46 µM (inactive) | 4.54 µM (inactive) | > 100 µM (inactive) | > 100 µM (inactive) | > 100 µM (inactive) | > 100 µM (inactive) | > 100 µM (inactive) | > 100 µM (inactive) | 2.96 µM (inactive) | > 100 µM (inactive) | 3.93 µM (inactive) | > 100 µM (inactive) | – | > 100 µM (inactive) | 0.762 µM (active) | 89.5 µM (inactive) | – | – | > 100 µM (inactive) | – |
| Cc1c2ccnc(C(F)(F)F)c2cc2c1[nH]c1ccccc12 | – | > 125 µM (inactive) | – | > 125 µM (inactive) | 17.1 µM (inactive) | – | > 125 µM (inactive) | 118 µM (inactive) | – | – | 16.6 µM (inactive) | 110 µM (inactive) | – | > 125 µM (inactive) | > 125 µM (inactive) | – | > 125 µM (inactive) | > 125 µM (inactive) | – | 12 µM (inactive) |
| CCCn1c(CN(Cc2nc3ccccc3n2CCC)Cc2nc3ccccc3n2CCC)nc2ccccc21 | 3.27 µM (inactive) | 2.76 µM (inactive) | 2.26 µM (inactive) | 7.36 µM (inactive) | 0.973 µM (active) | 15.7 µM (inactive) | 1.23 µM (inactive) | 7.01 µM (inactive) | 2.55 µM (inactive) | 3.31 µM (inactive) | 0.249 µM (active) | 2.25 µM (inactive) | 2.04 µM (inactive) | 5.11 µM (inactive) | 0.764 µM (active) | 5.71 µM (inactive) | – | – | 7.83 µM (inactive) | – |
| O=S1(=O)CS(=O)(=O)OCCCO1 | > 100 µM (inactive) | 63.8 µM (inactive) | > 100 µM (inactive) | > 100 µM (inactive) | 97.1 µM (inactive) | > 100 µM (inactive) | > 100 µM (inactive) | > 100 µM (inactive) | > 100 µM (inactive) | > 100 µM (inactive) | > 100 µM (inactive) | > 100 µM (inactive) | > 100 µM (inactive) | 68.5 µM (inactive) | 59 µM (inactive) | – | – | – | > 100 µM (inactive) | – |
| CC1(C)CCCC2(C)[C@@H]1CC[C@]13C[C@](C)(CC[C@@H]21)[C@@H]3CO (some centres undefined) | – | > 100 µM (inactive) | – | > 100 µM (inactive) | – | > 100 µM (inactive) | > 100 µM (inactive) | > 100 µM (inactive) | – | – | 98.9 µM (inactive) | – | – | > 100 µM (inactive) | > 100 µM (inactive) | – | > 100 µM (inactive) | > 100 µM (inactive) | – | > 100 µM (inactive) |
| C#C[C@]1(O)[C@@H](CO)O[C@@H](n2ccc(=O)[nH]c2=O)[C@@H]1O | 0.173 µM (active) | 0.19 µM (active) | 0.0822 µM (active) | 1.81 µM (inactive) | 0.0339 µM (active) | 0.413 µM (active) | < 0.0146 µM (active) | 1.03 µM (active) | 0.0692 µM (active) | 0.25 µM (active) | – | < 0.01 µM (active) | 0.251 µM (active) | 0.428 µM (active) | 0.356 µM (active) | 0.374 µM (active) | – | – | 0.0391 µM (active) | – |
